From publication PMC9841527 (Journal of Medicinal Chemistry, 2022)

How the values were obtained:
DOT1L = DOT1L (Homo sapiens, UniProt Q8TEK3); test: Selectivity assay, DOT1L; assay type: biochemical; conditions: compound 10 μM, 3H-SAM 1 μM
CamA = molecular target: T1, CamA (Clostridioides difficile, UniProt Q183J3); test: Isothermal titration calorimetry; assay type: binding
T1 sequence (Q183J3 1-577): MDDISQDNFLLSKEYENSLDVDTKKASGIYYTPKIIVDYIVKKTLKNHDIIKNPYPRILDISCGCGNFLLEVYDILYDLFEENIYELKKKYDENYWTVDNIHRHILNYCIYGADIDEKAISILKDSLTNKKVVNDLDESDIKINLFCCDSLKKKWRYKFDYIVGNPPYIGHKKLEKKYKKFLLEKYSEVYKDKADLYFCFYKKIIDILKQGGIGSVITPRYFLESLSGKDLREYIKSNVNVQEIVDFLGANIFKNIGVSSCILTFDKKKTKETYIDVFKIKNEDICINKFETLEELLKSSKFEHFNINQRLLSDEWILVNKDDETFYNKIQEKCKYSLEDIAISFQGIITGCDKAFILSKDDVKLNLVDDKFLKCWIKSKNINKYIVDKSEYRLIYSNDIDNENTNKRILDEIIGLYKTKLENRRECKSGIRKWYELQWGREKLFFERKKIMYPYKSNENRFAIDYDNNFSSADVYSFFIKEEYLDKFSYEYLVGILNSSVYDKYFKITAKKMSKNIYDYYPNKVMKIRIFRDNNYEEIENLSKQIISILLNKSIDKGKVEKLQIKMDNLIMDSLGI

MettL3-MettL14 = MettL3-MettL14 (Homo sapiens, UniProt Q86U44); test: Selectivity assay, MettL3-MettL14; assay type: biochemical; conditions: [I] = 10 μM, [SAM] = 20 μM, 5 mM NaCl, or CamA conditions
MettL3-MettL14, sequence (Q86U44 whole entry): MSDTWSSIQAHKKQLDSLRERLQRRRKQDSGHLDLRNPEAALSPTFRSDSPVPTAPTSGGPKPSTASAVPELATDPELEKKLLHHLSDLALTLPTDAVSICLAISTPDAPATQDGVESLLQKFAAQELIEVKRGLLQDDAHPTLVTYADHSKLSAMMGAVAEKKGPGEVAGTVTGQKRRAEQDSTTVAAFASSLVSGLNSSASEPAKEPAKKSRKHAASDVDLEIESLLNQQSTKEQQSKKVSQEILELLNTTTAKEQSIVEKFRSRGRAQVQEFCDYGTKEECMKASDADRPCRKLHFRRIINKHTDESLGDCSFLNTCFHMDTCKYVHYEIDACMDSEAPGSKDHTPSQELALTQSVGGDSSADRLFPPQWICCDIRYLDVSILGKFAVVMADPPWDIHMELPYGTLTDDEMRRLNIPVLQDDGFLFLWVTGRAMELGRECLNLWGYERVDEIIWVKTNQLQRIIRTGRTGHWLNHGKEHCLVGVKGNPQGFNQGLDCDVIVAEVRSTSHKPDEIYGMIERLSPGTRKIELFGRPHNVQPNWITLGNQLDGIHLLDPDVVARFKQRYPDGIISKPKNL
MettL3-MettL14, sequence (Q9HCE5 whole entry partner): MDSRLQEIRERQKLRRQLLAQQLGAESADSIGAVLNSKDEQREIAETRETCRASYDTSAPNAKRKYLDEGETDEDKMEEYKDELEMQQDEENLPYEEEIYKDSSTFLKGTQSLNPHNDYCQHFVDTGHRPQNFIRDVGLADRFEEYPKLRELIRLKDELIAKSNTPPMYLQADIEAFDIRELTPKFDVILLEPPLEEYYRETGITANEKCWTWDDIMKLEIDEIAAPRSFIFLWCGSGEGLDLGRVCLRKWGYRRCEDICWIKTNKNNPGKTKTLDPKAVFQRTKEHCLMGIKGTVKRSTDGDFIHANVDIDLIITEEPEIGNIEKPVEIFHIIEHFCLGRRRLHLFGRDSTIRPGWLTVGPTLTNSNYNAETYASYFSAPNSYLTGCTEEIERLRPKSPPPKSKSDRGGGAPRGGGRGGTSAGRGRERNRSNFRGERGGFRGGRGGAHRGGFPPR

[1] = molecular target: T2, A1 adenosine receptor (A1AR) (Homo sapiens, UniProt P30542); test: A1AR agonist radioligand binding assay; conditions: compound 10 μM, [3H]CCPA 1 nM, transfected CHO cell membranes
T2 sequence (P30542 1-326): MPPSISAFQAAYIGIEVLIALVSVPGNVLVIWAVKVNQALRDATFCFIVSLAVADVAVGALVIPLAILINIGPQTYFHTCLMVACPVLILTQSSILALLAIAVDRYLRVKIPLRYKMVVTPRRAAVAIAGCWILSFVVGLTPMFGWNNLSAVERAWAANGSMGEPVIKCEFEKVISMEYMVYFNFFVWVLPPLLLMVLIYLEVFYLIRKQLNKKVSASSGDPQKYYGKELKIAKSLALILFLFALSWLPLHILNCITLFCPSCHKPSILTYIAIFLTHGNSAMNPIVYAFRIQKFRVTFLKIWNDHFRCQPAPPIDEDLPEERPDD

G9a = molecular target: T3, G9a (Homo sapiens, UniProt Q96KQ7); test: Selectivity assay, G9a; assay type: biochemical; conditions: compound 10 μM, 3H-SAM 1 μM
T3 sequence (Q96KQ7 1-1210): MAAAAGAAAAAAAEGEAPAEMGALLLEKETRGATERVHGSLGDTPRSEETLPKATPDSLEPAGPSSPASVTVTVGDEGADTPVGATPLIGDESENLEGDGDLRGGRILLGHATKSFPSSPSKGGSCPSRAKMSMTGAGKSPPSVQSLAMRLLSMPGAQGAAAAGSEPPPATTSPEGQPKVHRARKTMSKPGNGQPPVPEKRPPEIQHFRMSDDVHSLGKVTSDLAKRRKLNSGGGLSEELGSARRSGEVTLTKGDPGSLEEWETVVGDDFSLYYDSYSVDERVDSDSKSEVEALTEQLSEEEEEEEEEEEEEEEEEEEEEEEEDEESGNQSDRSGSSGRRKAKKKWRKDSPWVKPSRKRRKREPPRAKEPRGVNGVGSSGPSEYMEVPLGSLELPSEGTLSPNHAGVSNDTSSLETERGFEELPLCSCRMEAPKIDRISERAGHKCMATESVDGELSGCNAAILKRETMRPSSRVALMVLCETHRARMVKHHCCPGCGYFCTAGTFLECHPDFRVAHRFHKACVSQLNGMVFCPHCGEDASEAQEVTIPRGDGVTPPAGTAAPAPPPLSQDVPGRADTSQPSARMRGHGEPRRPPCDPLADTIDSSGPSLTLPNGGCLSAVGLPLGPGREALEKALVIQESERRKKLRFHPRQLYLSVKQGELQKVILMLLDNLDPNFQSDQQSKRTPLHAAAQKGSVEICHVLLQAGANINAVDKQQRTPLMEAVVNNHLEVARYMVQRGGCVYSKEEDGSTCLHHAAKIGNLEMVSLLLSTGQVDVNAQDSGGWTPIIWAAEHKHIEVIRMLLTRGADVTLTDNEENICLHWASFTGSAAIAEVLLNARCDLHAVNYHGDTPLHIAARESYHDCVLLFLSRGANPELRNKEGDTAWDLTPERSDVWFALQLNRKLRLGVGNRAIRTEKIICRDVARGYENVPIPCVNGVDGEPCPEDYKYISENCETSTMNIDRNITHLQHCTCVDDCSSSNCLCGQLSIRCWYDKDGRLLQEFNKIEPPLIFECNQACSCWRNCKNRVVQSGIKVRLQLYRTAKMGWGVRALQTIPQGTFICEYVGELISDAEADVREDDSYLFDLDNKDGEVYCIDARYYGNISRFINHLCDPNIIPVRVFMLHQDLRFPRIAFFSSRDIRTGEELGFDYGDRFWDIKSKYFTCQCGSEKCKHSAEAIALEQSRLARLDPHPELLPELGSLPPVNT

MettL16 = molecular target: T4, MettL16 (Homo sapiens, UniProt Q86W50); test: Selectivity assay, MettL16; assay type: biochemical; conditions: [I] = 10 μM, [SAM] = 160 μM or 30 μM
T4 sequence (Q86W50 1-562): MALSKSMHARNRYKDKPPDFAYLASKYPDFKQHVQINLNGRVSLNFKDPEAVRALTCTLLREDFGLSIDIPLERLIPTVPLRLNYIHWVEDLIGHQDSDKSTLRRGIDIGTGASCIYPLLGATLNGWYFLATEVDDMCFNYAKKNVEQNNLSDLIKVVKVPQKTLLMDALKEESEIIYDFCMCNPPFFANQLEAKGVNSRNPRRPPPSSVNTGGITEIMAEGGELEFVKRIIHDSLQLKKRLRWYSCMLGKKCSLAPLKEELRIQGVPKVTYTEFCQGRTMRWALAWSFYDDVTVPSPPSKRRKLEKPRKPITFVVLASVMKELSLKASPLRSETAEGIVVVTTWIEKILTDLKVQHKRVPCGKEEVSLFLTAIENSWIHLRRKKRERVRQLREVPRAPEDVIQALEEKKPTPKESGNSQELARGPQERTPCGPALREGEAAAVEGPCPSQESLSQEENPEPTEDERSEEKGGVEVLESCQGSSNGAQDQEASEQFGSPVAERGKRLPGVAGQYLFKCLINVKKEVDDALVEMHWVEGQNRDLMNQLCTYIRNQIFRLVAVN

MettL5-Trm112 = MettL5-Trm112 (Homo sapiens, UniProt Q9NRN9); assay type: biochemical
MettL5-Trm112, sequence (Q9NRN9 whole entry): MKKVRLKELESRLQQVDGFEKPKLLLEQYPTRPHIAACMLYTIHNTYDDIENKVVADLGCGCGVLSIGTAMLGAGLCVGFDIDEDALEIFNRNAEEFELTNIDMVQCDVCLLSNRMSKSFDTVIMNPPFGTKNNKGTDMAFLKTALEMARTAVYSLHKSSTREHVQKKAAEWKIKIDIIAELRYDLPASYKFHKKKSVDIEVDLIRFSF
MettL5-Trm112, sequence (Q9UI30 whole entry partner): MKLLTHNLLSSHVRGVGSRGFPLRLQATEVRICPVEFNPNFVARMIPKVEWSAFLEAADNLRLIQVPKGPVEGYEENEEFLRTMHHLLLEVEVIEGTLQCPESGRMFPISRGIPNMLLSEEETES

DOT1L, sequence (Q8TEK3 whole entry): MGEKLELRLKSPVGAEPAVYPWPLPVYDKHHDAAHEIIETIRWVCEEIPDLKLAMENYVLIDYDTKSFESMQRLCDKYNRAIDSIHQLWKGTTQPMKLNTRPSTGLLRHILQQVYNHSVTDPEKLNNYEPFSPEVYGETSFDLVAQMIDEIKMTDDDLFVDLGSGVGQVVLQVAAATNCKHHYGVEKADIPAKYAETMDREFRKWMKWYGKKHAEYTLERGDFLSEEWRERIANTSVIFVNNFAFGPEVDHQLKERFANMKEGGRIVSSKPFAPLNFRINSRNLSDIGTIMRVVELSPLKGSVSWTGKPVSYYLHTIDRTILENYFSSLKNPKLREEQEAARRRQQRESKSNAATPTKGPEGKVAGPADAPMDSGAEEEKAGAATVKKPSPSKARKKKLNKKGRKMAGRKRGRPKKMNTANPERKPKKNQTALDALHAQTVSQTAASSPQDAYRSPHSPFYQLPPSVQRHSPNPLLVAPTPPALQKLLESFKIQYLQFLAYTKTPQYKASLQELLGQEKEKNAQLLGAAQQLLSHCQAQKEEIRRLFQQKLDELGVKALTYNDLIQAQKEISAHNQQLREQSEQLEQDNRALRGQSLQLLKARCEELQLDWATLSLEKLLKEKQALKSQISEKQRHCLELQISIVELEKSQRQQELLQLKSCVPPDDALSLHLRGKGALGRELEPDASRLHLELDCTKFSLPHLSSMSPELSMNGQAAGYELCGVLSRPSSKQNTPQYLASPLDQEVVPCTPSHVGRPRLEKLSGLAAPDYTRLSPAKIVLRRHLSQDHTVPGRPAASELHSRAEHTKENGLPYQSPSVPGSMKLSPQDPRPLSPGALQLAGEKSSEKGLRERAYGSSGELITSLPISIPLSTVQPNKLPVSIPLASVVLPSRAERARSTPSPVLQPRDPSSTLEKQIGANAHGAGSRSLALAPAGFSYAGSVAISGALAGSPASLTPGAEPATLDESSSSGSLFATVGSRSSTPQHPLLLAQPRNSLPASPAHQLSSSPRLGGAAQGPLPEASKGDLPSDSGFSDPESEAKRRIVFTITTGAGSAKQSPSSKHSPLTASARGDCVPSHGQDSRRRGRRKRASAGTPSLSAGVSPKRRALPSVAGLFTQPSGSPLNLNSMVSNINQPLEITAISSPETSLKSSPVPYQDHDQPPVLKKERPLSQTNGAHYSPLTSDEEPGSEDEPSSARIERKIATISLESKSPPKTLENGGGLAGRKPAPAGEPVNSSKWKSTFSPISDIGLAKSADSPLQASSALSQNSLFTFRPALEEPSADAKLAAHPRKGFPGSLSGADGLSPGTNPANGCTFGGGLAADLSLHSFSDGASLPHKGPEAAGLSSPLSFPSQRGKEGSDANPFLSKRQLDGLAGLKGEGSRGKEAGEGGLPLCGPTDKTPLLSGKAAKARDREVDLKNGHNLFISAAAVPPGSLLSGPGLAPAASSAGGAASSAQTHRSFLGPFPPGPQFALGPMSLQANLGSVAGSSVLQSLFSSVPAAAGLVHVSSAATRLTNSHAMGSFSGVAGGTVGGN

Row | Compound | inhibition of DOT1L (DOT1L) | lower KD value, fold (CamA; compared to compound 15) [X] | inhibition of MettL3-MettL14 (MettL3-MettL14) | inhibition of control radioligand specific binding, A1AR [1] | inhibition of G9a (G9a) | inhibition of MettL16 (MettL16) | inhibition of MettL5-Trm112 (MettL5-Trm112) | Kd (CamA; KD ± SD, ITC, 25 °C) [nM] | KD improved, fold (CamA; from that of compound 37) [×]
1 | OC[C@H]1O[C@@H](n2cnc3c(NCCCc4ccc(O)cc4)ncnc32)[C@H](O)[C@@H]1O [Compound 16, (2R,3S,4R,5R)-2-(Hydroxymethyl)-5-(6-((3-(4-hydroxyphenyl)propyl)amino)-9H-purin-9-yl)tetrahydrofuran-3,4-diol] | none of them showed any significant inhibition | ~6.5 | none of them showed any significant inhibition | minimal inhibition of specific binding | none of them showed any significant inhibition | none of them showed any significant inhibition | none of them showed any significant inhibition |  | 
2 | CC(C)(C)OC(=O)N1CCC(CCCNc2ncnc3c2ncn3[C@@H]2O[C@H](CO)[C@@H](O)[C@H]2O)CC1 [Compound 39, tert-Butyl-4-(3-((9-((2R,3R,4S,5R)-3,4-dihydroxy-5-(hydroxymethyl)tetrahydrofuran-2-yl)-9H-purin-6-yl)amino)propyl)piperidine-1-carboxylate] | none of them showed any significant inhibition |  | none of them showed any significant inhibition | minimal inhibition of specific binding | none of them showed any significant inhibition | none of them showed any significant inhibition | none of them showed any significant inhibition | ~200 | ~8
